TGI data for 13 compounds are collected here from PubChem BioAssay (NCI).

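Step 1: Grow cells in 96-well plates. Step 2: Expose to compound for 48 hours at 5 concentrations. Step 3: Interpolate endpoints linearly; if unreached, use highest concentration. TGI marks complete inhibition of growth.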 A value given as a limit tells only on which side of the number the result lay.

Holding throughout (assay): NCI tumour cell line growth inhibition, 48 h
For test [1], the system named is HCT-116 colon.
For test [2], the system named is SR leukemia.
For test [3], the system named is ACHN renal.
Test [4] has as its system M14 melanoma.
In test [5] the test system is K-562 leukemia.
Test [6] deals with SK-MEL-5 melanoma.
Test [7] relates to SW-620 colon.
Test [8] concerns IGROV1 ovarian.
The test system of test [9] is HS 578T breast.
In test [10] the test system is EKVX NSCLC.

For `CC12ON(P(=O)(c3ccccc3)c3ccccc3)C(C)(c3ccccc31)c1ccccc12`, the TGI in test [1], in test [2], in test [3], in test [4], in test [5] and in [6] was above 100 µM in each case. Further, the TGI in test [7], in test [8], in test [9] and in [10] was above 100 µM each time.
Consider `CN(C)CCNC(=O)c1ccc(Cl)c2cc3ccccc3nc12`, for which the TGI in [1] came out at 5.48 µM; in test [2], 3.03 µM; in test [3], 12.1 µM; in [4], 2.62 µM; in test [5], 12.3 µM; in test [6], 2.44 µM. The TGI worked out at 6.68 µM in [7], 11.3 µM in test [8], 3.07 µM in test [9] and 4.78 µM in [10].
Regarding `COc1c(C)c(C/C=C(\C)CC/C=C(\C)CC/C=C(\C)CCC=C(C)C)c(OC)c2ccccc12`, the TGI was above 100 µM in test [1]; 90.6 µM in [2]; above 100 µM in test [3]; above 100 µM in [4]; above 100 µM in test [5]; above 100 µM in test [6]. In addition, the TGI in [7], in test [8], in [9] and in test [10] was above 100 µM throughout.
Take `CCCC(=O)NC(Nc1ccc(F)cc1)(C(F)(F)F)C(F)(F)F`: the TGI in test [1], in test [2], in test [3], in test [4], in test [5] and in test [6] was above 100 µM throughout. Moreover, the TGI in test [7], in test [8], in [9] and in test [10] was above 100 µM in each case.
Take `CC(=O)Oc1cc(OC(C)=O)c2c(C)cc(=O)oc2c1`: the TGI in [1], in test [2], in test [3], in test [4], in [5] and in [6] was above 100 µM in each case. Moreover, the TGI in test [7], in test [8], in test [9] and in test [10] was above 100 µM throughout.
As to `COC([C@@H](OC(=O)c1ccccc1)[C@H](OC(=O)c1ccccc1)C(O)COC(=O)c1ccccc1)n1cc(C)c(=O)[nH]c1=O` (stereo partly drawn), the TGI in test [1] is 87.8 µM; in test [2] it was above 100 µM; in [3], above 100 µM; in [4], 76 µM; in test [5] it was above 100 µM; in test [6] it was 24 µM. Further, the TGI in test [7], in [8], in [9] and in test [10] was above 100 µM each time.
On to `O=C(O)CNC(=O)c1ccc2cc(C(=O)N3CC(CCl)c4ccc([N+](=O)[O-])cc43)[nH]c2c1` (stereo not drawn), for which the TGI in test [1], in test [2], in test [3], in [4], in test [6] and in test [7] was above 100 µM in each case. For the same compound, the TGI in [8], in [9] and in [10] was above 100 µM each time.
With `COc1ccc(N=C2C(=Nc3ccc(OC)cc3)N(c3ccc(N(C)C)cc3)C(=S)N2c2ccc(OC)cc2)cc1`, the TGI in test [1], in [2], in test [3], in test [4], in [5] and in [6] was above 100 µM in each case. The TGI in test [7], in test [8], in [9] and in [10] was above 100 µM each time.
Regarding `Cc1cc(N2CCCC2)c([N+](=O)[O-])cc1[N+](=O)[O-]`, the TGI in test [1], in test [2], in test [3], in test [4], in test [5] and in test [6] was above 100 µM throughout. Besides, the TGI in test [7], in [8], in [9] and in test [10] was above 100 µM each time.
`CN(Cc1cnc2nc(N)nc(N)c2n1)c1ccc(C(=O)NC(CCC(=O)NC(CC(P(=O)(O)O)P(=O)(O)O)C(=O)O)C(=O)O)cc1` (stereo not drawn): the TGI in test [1], in test [2], in [3], in [4], in [6] and in [7] was above 100 µM each time. Further, the TGI in test [8], in test [9] and in test [10] was above 100 µM each time.
With `Cc1c2ccccc2c(C)n2c1nc1ccccc12`, the TGI in [1] was above 100 µM; in test [2] it was above 100 µM; in test [3] it was 45.5 µM; in test [4], 24.1 µM; in test [5], above 100 µM; in test [6] it was 16 µM. Also, the TGI is above 100 µM in test [7], 43.8 µM in test [8], 54.5 µM in test [9] and 54.9 µM in test [10].
Take `COc1ccc(CNc2nc3cc(C(F)(F)F)ccc3nc2-c2ccccc2)cc1OC`: the TGI in [1] was above 100 µM; in [2], above 100 µM; in test [3], above 100 µM; in test [4], above 100 µM; in test [5], above 100 µM; in test [6] it was 42.4 µM. Also, the TGI in test [7], in [8], in [9] and in test [10] was above 100 µM in each case.
For the compound `COC(=O)C1=CON2C3CC4CC(C3)CC(C4)C12C` (stereo not drawn), the TGI in test [1], in [2], in test [3], in test [4], in test [5] and in test [6] was above 100 µM throughout. In addition, the TGI in test [7], in [8], in [9] and in test [10] was above 100 µM each time.
